Assay results as given in ChEMBL document CHEMBL3611972, “Leishmanicidal, antiproteolytic, and mutagenic evaluation of alkyltriazoles and alkylphosphocholines” (Eur J Med Chem, 2015).

Legend:
Leishmania amazonensis [1] = experiment: microbe, parasite or virus in culture; type: functional, organism-based; conditions: MHOM/BR/71973/M2269, 72 h
Description: Leishmanicidal activity against Leishmania amazonensis MHOM/BR/71973/M2269 promastigotes assessed as reduction in surviving parasites incubated for 72 hrs by Neubauer's chamber based cell counting method

Leishmania amazonensis [2] = experiment: Leishmanicidal activity against Leishmania amazonensis MHOM/BR/71973/M2269 amastigotes infected in mouse peritoneal macrophages assessed as reduction in surviving parasites incubated for 72 hrs by Giemsa staining based optical light microscopy; type: functional, organism-based; conditions: MHOM/BR/71973/M2269, 72 h
[3] = Cytotoxicity against mouse peritoneal macrophages assessed as reduction in cell viability incubated for 72 hrs by MTT assay; type: cell-based, Peritoneal macrophage cell
[4] = Selectivity index, ratio of CC50 for mouse peritoneal macrophages to IC50 for Leishmania amazonensis MHOM/BR/71973/M2269 amastigotes infected in mouse peritoneal macrophages; type: functional
[5] = Inhibition of Leishmania mexicana cysteine protease r-CPB2.8 using Z-FR-AMC fluorogenic substrate by spectrofluorometry
Salmonella typhimurium [6] = experiment: Mutagenicity in Salmonella typhimurium TA98 assessed as mutagenicity index at 10 ug/plate incubated for 90 mins at 37 degC in absence of liver S9 fractions by Ames test relative to control; type: toxicity, organism-based; conditions: salmonella enterica subsp. enterica serovar typhimurium, 1.5 h
Salmonella typhimurium [7] = experiment: Mutagenicity in Salmonella typhimurium TA98 assessed as mutagenicity index at 10 ug/plate incubated for 90 mins at 37 degC in absence of liver S9 fractions by Ames test relative to untreated control; type: toxicity, organism-based; conditions: salmonella enterica subsp. enterica serovar typhimurium, 1.5 h
Salmonella typhimurium [8] = experiment: Mutagenicity in Salmonella typhimurium TA102 assessed as mutagenicity index at 5 ug/plate incubated for 90 mins at 37 degC in presence of liver S9 fractions by Ames test relative to untreated control; type: toxicity, organism-based; conditions: salmonella enterica subsp. enterica serovar typhimurium, s9, 1.5 h
Salmonella typhimurium [9] = experiment: Mutagenicity in Salmonella typhimurium TA102 assessed as number of revertants at 5 ug/plate incubated for 90 mins at 37 degC in presence of liver S9 fractions by Ames test relative to control; conditions: salmonella enterica subsp. enterica serovar typhimurium, s9, 1.5 h
Salmonella typhimurium [10] = experiment: Mutagenicity in Salmonella typhimurium TA100 assessed as number of revertants at 5 ug/plate incubated for 90 mins at 37 degC in presence of liver S9 fractions by Ames test relative to untreated control; conditions: salmonella enterica subsp. enterica serovar typhimurium, s9, 1.5 h

IC50 (Leishmania amazonensis [1])	IC50 [5]	SMILES	IC50 (Leishmania amazonensis [2])	Ratio CC50/IC50 [4]	other results
19.3 µM	1.22 µM	OCCCc1cn(CCCCCCCCCCCCI)nn1	23.7 µM	2.79	CC50 at 72 h [3]: 66.2 µM
81.7 µM		OCCCc1cn(CCCCCCCCCF)nn1			
37.1 µM	2.26 µM	OCCCc1cn(CCCCCCCCCCCCF)nn1	15.1 µM	9.83	CC50 at 72 h [3]: 163 µM
47.6 µM		CCOC(=O)c1cn(CCCCCCCCCI)nn1			
4.01 µM	4.53 µM	CS(=O)(=O)OCCCCCCCCCCCCn1cc(CCCOS(C)(=O)=O)nn1	70.2 µM	2.14	CC50 at 72 h [3]: 156 µM
		Nc1ccc([N+](=O)[O-])cc1N			Activity_index (Salmonella typhimurium [6]): 1350; Activity_index (Salmonella typhimurium [7]): 1350
51.7 µM		CS(=O)(=O)OCCCCCCCCCCCCn1cc(CO)nn1			
67.7 µM		OCCCc1cn(CCCCCCCCCI)nn1			
25.6 µM	8.35 µM	C[N+](C)(C)CCOP(=O)([O-])OCCCCCCCCCCCCN=[N+]=[N-]	3.81 µM	33.76	CC50 at 72 h [3]: 129 µM
219 µM		CCOC(=O)c1cn(CCCCCCOS(C)(=O)=O)nn1			
27.9 µM	6.08 µM	CCOC(=O)c1cn(CCCCCCCCCCCCI)nn1	17.7 µM	5.28	CC50 at 72 h [3]: 93.4 µM
		N=C(N)c1ccc(OCCCCCOc2ccc(C(=N)N)cc2)cc1 [PENTAMIDINE]	6.62 µM	1.69	
136 µM		C[N+](C)(C)CCOP(=O)([O-])OCCCCCCCCCN=[N+]=[N-]			
	0.125 µM	CC(C)C[C@H](NC(=O)[C@H]1O[C@@H]1C(=O)O)C(=O)NCCCCN=C(N)N [E-64]			
82.2 µM		CS(=O)(=O)OCCCCCCCCCn1cc(CCCO)nn1			
75.9 µM		CCOC(=O)c1cn(CCCCCCCCCCCCOS(C)(=O)=O)nn1			
		Nc1ccc2cc3ccccc3cc2c1 [2-AMINOANTHRACENE]			Revertants (Salmonella typhimurium [8]): 2510 revertants/plate; Revertants (Salmonella typhimurium [9]): 2510 revertants/plate; Revertants (Salmonella typhimurium [10]): 1020 revertants/plate
30.3 µM	1.02 µM	CC(=O)OCCCc1cn(CCCCCCCCCCCCOS(C)(=O)=O)nn1	56.1 µM		CC50 at 72 h [3]: 26.6 µM
225 µM		CS(=O)(=O)OCCCCCCCCCCCCn1cc(CCC(=O)O)nn1			
4.7 µM		C[C@@H]1[C@H](O)[C@@H](C)/C=C/C=C/C=C/C=C/C=C/C=C/C=C/[C@H](O[C@@H]2O[C@H](C)[C@@H](O)[C@H](N)[C@@H]2O)C[C@@H]2O[C@](O)(C[C@@H](O)C[C@@H](O)[C@H](O)CC[C@@H](O)C[C@@H](O)CC(=O)O[C@H]1C)C[C@H](O)[C@H]2C(=O)O [AMPHOTERICIN B]	6.1 µM	4.44	
229 µM		CS(=O)(=O)OCCCCCCn1cc(CCCO)nn1			
